Test results as given in patent US5830909A (American Cyanamid Company, priority 1996, dated 1998).
Counter-ions that a name gives are not always drawn.

Experiments:
epididymal adipocytes = assay: Epididymal adipocyte cell volume after two weeks oral treatment; format: in vivo, rat; settings: 4 rats/group, oral once daily for 2 weeks
Procedure: (§1) Body weight and food intake are monitored daily. At the end of two weeks, the rats are sacrificed and tissues are weighed. Adipocyte membranes are prepared by collagenase digestion, homogenization and centrfugation. […] Of the organs sampled, the combined largest relative and quantitative change in weight was in the adipose tissue.

adipocyte AII receptor = assay: Epididymal adipocyte AII receptor binding (Bmax) after two weeks oral treatment; format: in vivo, rat; settings: 4 rats/group, oral once daily for 2 weeks
Procedure: Body weight and food intake are monitored daily. At the end of two weeks, the rats are sacrificed and tissues are weighed. Adipocyte membranes are prepared by collagenase digestion, homogenization and centrfugation.
Binding is initiated by suspending the adipocyte membranes in 0.25% BSA buffer (bovine serum albumin, 50 mM Tris HCl, 5 mM MgCl2,pH 7.4) to a final concentration of 5 ug protein/10 ul buffer. […] The filters are placed in tubes, and radioactivity measured in a gamma scintillation counter programmed to correct for the half-life of the isotope. Using this experimental protocol, both the affinity (KD) and number of binding sites (Bmax) for angiotensin II on the adipocyte membrane can be calculated.

[1] = format: in vivo, rat; settings: 15 mg/kg once a day by gavage, two weeks
Procedure: as §1

AII receptor [2] = target: T1, AII receptor (Rattus norvegicus, UniProt P25095); assay: Displacement of 125I[Sar,Ile]AII binding in rat epididymal fat cell membranes
T1 construct: adipose tissue from the epididymal and retroperitoneal depots is quickly excised; from tissue; host or cells: membranes of collagenase-isolated adipocytes from epididymal and retroperitoneal fat of male Sprague-Dawley rats
T1 sequence (P25095 1-359): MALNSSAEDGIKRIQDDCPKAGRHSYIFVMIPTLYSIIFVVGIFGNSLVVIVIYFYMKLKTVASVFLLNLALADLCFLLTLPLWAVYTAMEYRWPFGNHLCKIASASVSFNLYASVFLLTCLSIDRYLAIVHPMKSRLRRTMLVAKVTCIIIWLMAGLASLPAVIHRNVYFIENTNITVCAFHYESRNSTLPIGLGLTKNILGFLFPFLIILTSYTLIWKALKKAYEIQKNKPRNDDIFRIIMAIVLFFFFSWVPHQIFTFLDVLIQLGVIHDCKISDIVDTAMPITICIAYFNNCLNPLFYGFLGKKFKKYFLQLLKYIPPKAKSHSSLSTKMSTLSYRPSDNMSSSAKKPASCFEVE
Source text: The experimental design involves determining the binding characteristics of adipocyte membranes harvested from two different anatomic sites at three different ages. Male Sprague-Dawley rats (Charles River Laboratories, Wilmington, Mass.) are used at 40, 70 and 100 days of age. Rats are killed by carbon dioxide inhalation on the morning of the experiment, and adipose tissue from the epididymal and retroperitoneal depots is quickly excised and placed in cold saline. The spermatic artery and vein are removed from the epididymal fat, and brown fat deposits are dissected away from the retroperitoneal depot. The adipose tissue is weighed, minced into small pieces, and approximately 10 g each transferred to a flask containing 25 ml of Krebs-Ringer-bicarbonate buffer (KRB), 6 mM glucose and 50 mg of collagenase, pH 7.4. […] Intact adipocytes dissociated from the tissue pass freely into waiting tubes, while the undigested tissue is trapped on the screen. The tubes containing the adipocytes are washed an additional 4× with 20 ml each of cold Tris buffer (10 mM Tris HCl, pH 8.0) by first allowing the adipocytes to separate from the digestion medium by flotation, removing the infranatant through polyethylene tubing attached to a syringe, resuspending the cells in the Tris buffer, and repeating this procedure. Adipocyte membranes used for binding studies are prepared as follows. […] Following centrifugation, the fat cake and supernatant are carefully removed, and the pellet resuspended in 1 ml of Tris buffer. Protein content of the high speed pellet is determined, the resuspended protein is either assayed immediately or stored at -75° before binding assays are performed. […] The assay is initiated by the addition of the membrane protein, followed by incubation at 22° C. for 30 minutes in a slowly shaking water bath. Separation of bound from free radioactivity is achieved using any appropriate filtration apparatus. We use either a Millipore or Brandel model harvesting apparatus containing a Durapore or Whatman GF/B filter, followed by 6 additional rinses with 5 ml each of cold saline. The filters are placed in tubes, and radioactivity measured in a gamma scintillation counter programmed to correct for the half-life of the isotope. Using this experimental protocol, both the affinity (KD) and number of binding sites (Bmax) for angiotensin II on the adipocyte membrane can be calculated. The relative affinities of different anatomically distinct adipocyte membranes for a variety of peptide and nonpeptide antagonists can also be determined. […] Concentration ranges can be altered dependent upon the affinity of the particular antagonist for the fat cell membrane receptor.

AII receptor [3] = target: T1, AII receptor; assay: Displacement of 125I[Sar,Ile]AII binding in rat retroperitoneal fat cell membranes
Source text: The experimental design involves determining the binding characteristics of adipocyte membranes harvested from two different anatomic sites at three different ages. Male Sprague-Dawley rats (Charles River Laboratories, Wilmington, Mass.) are used at 40, 70 and 100 days of age. Rats are killed by carbon dioxide inhalation on the morning of the experiment, and adipose tissue from the epididymal and retroperitoneal depots is quickly excised and placed in cold saline. The spermatic artery and vein are removed from the epididymal fat, and brown fat deposits are dissected away from the retroperitoneal depot. […] Protein content of the high speed pellet is determined, the resuspended protein is either assayed immediately or stored at -75° before binding assays are performed. […] Separation of bound from free radioactivity is achieved using any appropriate filtration apparatus. […] The filters are placed in tubes, and radioactivity measured in a gamma scintillation counter programmed to correct for the half-life of the isotope. Using this experimental protocol, both the affinity (KD) and number of binding sites (Bmax) for angiotensin II on the adipocyte membrane can be calculated. The relative affinities of different anatomically distinct adipocyte membranes for a variety of peptide and nonpeptide antagonists can also be determined. […]

IC50 (AII receptor [2]; Epididymal IC50 for displacement of 125I[Sar,Ile]AII binding, rat epididymal fat cell membranes (Table 8)) | Compound | Adipocyte Cell Volume (epididymal adipocytes) | Bmax, epididymal adipocyte AII receptor binding (adipocyte AII receptor) | Avg. Daily Food Intake, % Change From Control [1] | Avg. Weight Gain, % Change From Control [1] | Epididymal Fat Weight, % Change From Control [1] | Final Body Weight, % Change From Control [1] | Retroperitoneal Fat Weight, % Change From Control [1] | Avg. Daily Food Intake ([1]; n = 6) | Avg. Weight Gain ([1]; n = 6) | Epididymal Fat Weight ([1]; n = 6) | Final Body Weight ([1]; n = 6) | Retroperitoneal Fat Weight ([1]; n = 6) | IC50 (AII receptor [3]) | IC50 (AII receptor [2]; Inhibitory Constants (IC50) for displacement of 125I[Sar,Ile]AII binding, Epididymal, rat epididymal fat cell membranes, 1 nM radioligand, 1-4 assays)
0.0146 µM | CCCCc1nc2ccc([C@@]3(C)C[C@@H]4CCCN4O3)cc2c(=O)n1Cc1ccc(-c2ccccc2-c2nnn[nH]2)cc1 (racemic) [cis-(+/-)-2-butyl-6-(hexahydro-2-methylpyrrolo[1,2-b]isoxazol-2-yl)-3-[[2'-(1H-tetrazol-5-yl)[1,1-biphenyl]-4-yl]methyl]-4(3H)-quinazolinone sodium salt] | 187 p1 | 31.8 fmole/mg protein | -7% | -55% | -17% | -7% | -11% | 30.4 g | 25 g | 4.33 g | 424 g | 4.35 g | – | –
– | Cc1cc(Cn2cnc3c2C[C@@H](C(=O)O)N(C(=O)C(c2ccccc2)c2ccccc2)C3)ccc1N(C)C [((S)-)-[[4-(di-methylamino)-3-methylphenyl]methyl-5-(diphenylacetyl)-4,5,6,7-tetrahydro-1H-imidazo[4,5-c]-pyridine-6-carboxylic acid, reference compound] | – | – | – | – | – | – | – | – | – | – | – | – | 242 µM | 173 µM
